Source: patent publication US20260042834A1, “ANTI-CORTICOTROPIN-RELEASING HORMONE ANTIBODIES AND POLYCYSTIC OVARY SYNDROME” (HBM ALPHA THERAPEUTICS, INC., priority 2022, published 2026)

System: human CRHR1
Experiment: CRH-induced luciferase reporter blocking assay, CHO-CRE-hCRHR1 cells
Assay type: cell-based
Conditions: CHO-CRE-hCRHR1 Clone 11, data not shown
Method: To create CHO-CRE-hCRHR1, -hCRHR2, -mCRHR1, and -mCRHR2 reporter cell lines, pcDNA3.1-hCRHR1, -hCRHR2, -mCRHR1, and -mCRHR2 were introduced into CHO-CRE cells established above by electroporation as described above. Selection antibiotics hygromycin at 500 μg/ml and G418 at 1,000 μg/ml were employed. Individual established stable cell lines were characterized by both CRH and forskolin stimulation.
Activated GPCR proteins increase production of the intracellular cAMP.
Blocking CRHR1 by small molecules or neutralization of CRH peptide can reduce luciferase expression if the CRH-CRHR1 system works in CHO-CRE-hCRHR1 cells.
50 μl of 4× serially diluted antibodies was added (8 points, 1/4 diluted by growth medium) to plates containing CHO-CRE-hCRHR1 cells, and 50 μl of 4×CRH (4× is 2 nM, final is 0.5 nM) was added. Similarly, 4×CRH (4× is 0.4 nM, final is 0.1 nM) was added to CHO-CRE-hCRHR2 cells and CHO-CRE-mCRHR1 cells, and 4×CRH (4× is 20 nM, final is 5 nM) was added to CHO-CRE-mCRHR2 cells. Next, plates were incubated 4-6 hours at 37° C. in a CO2 incubator. 60 μl of culture medium was removed, to which was added 60 μl of Bio-Glo luciferase, followed by incubation for 10 min at RT. Plates were read in a luciferase plate reader (EnVision, PerkinElmer).

SMILES: CCCCN(CC)c1nc(C)nc2c1c(C)c(C)n2-c1c(C)cc(C)cc1C [Antalarmin, reference compound]
- CRH-mediated luciferase expression: blocked
